Earlier results in paper PMC8395767, “Worsening of the Toxic Effects of (±)Cis-4,4′-DMAR Following Its Co-Administration with (±)Trans-4,4′-DMAR: Neuro-Behavioural, Physiological, Immunohistochemical and Metabolic Studies in Mice” (International Journal of Molecular Sciences, 2021).

Legend:
[1] = test system: dopamine (DAT) transporter; design: method as in PMID 30776375, PMID 25331619, PMID 29908239; settings: in vitro; cited from earlier work
DAT/SERT = test system: DAT/SERT; design: method as in PMID 30776375; settings: cited from earlier work
[2] = test system: noradrenaline (NET) transporter; design: method as in PMID 30776375, PMID 25331619, PMID 29908239; settings: in vitro; cited from earlier work
5-HT2C = biological target: 5-HT2C; design: method as in PMID 29908239; settings: read-out: Ki at 5-HT2C receptor; cited from earlier work
serotonin transporters = test system: serotonin transporters; design: method as in PMID 30776375, PMID 25331619, PMID 29908239; settings: in vitro; cited from earlier work
rat brain synaptosomes = test system: rat brain synaptosomes; design: method as in PMID 24841869; settings: compared with d-amphetamine, aminorex and 4-MAR; cited from earlier work
5-HT2A = biological target: 5-HT2A; design: method as in PMID 29908239; settings: read-out: Ki at 5-HT2A receptor; cited from earlier work

SMILES: Cc1ccc(C2OC(N)=NC2C)cc1 (stereo not shown) [4,4′-DMAR, 4-Methyl-5-(4-methylphenyl)-4,5-dihydrooxazol-2-amine]
- Inhibitory activity on dopamine transporter (DAT) [1]: potent inhibitory activity
- DAT/SERT ratio (DAT/SERT): 0.4
- Inhibitory activity on noradrenaline transporter (NET) [2]: potent inhibitory activity
- Ki (5-HT2C): ~11 µM
- Inhibitory activity on serotonin transporters (serotonin transporters): potent inhibitory activity
- Release of 5-HT from rat brain synaptosomes (rat brain synaptosomes): most potent releaser
- Ki (5-HT2A): ~8.9 µM
